Reference: paper PMC12540828, “Fexofenadine protects against osteoarthritis by targeting Smad2 and STAT1 to enhance anabolism and binding cPLA2 to inhibit catabolism” (Cell Death Discovery, 2025)

Assays:
cPLA2 = target: T1, cPLA2 (Homo sapiens, UniProt P47712); test: DARTS, Western blot; type: biochemical; details: chondrocyte lysate; protease digestion
T1 construct: gene PLA2G4A; endogenous, chondrocyte lysate, read by Western blot
T1 sequence (P47712 1-749): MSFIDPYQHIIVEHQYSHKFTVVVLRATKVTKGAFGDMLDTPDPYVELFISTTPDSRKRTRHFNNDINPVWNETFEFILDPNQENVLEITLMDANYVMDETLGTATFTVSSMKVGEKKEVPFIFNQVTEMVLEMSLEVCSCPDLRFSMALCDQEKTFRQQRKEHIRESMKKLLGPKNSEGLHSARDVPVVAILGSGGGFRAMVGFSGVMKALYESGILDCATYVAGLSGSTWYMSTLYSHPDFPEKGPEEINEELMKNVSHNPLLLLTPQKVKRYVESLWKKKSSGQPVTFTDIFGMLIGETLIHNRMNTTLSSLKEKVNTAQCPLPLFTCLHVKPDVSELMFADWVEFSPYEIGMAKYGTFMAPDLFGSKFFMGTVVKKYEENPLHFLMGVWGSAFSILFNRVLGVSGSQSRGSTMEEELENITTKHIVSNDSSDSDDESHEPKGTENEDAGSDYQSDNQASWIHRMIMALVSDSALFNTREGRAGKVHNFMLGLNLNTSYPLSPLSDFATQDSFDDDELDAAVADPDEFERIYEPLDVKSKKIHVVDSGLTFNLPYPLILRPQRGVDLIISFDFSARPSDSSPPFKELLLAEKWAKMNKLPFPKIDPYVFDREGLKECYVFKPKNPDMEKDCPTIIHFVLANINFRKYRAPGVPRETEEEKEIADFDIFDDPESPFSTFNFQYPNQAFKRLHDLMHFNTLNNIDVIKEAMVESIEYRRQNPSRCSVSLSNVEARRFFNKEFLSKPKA

[1] = target: T2, STAT1 (purified recombinant, His-tagged) (Homo sapiens, UniProt P42224); test: microscale thermophoresis; type: binding
T2 construct: purified recombinant, His-tagged, RED-NHS labelled
T2 sequence (P42224 2-750): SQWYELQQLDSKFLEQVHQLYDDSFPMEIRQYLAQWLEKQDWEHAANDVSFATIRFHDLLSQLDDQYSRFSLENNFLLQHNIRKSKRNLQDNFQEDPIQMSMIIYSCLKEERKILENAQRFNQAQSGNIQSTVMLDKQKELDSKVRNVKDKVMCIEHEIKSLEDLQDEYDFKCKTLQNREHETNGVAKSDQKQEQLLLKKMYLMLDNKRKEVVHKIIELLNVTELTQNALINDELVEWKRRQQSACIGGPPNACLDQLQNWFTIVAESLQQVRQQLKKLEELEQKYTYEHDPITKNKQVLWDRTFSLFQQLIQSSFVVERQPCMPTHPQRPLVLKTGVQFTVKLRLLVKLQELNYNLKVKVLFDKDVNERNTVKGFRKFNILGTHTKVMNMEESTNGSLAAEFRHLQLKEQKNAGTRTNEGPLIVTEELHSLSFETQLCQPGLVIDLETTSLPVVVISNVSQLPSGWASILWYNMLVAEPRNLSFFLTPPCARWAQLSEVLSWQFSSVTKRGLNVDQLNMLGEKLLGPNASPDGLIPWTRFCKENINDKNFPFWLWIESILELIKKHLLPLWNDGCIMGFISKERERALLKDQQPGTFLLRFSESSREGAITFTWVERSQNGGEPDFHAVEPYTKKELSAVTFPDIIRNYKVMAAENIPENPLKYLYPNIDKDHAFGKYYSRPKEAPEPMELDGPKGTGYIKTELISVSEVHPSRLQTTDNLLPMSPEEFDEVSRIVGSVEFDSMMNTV

[2] = target: T3, STAT1 (endogenous, human chondrocytes) (Homo sapiens, UniProt P42224); test: CETSA, Western blot; type: biochemical; details: FFD 10 μM
T3 construct: endogenous, read by Western blot
T3 sequence (P42224 2-750): T2 sequence (P42224 2-750)

[3] = target: T4, Smad2 (endogenous, human chondrocytes) (Homo sapiens, UniProt Q15796); test: CETSA and DARTS, Western blot; type: biochemical; details: CETSA with FFD 10 μM
T4 construct: endogenous, read by Western blot
T4 sequence (Q15796 2-467): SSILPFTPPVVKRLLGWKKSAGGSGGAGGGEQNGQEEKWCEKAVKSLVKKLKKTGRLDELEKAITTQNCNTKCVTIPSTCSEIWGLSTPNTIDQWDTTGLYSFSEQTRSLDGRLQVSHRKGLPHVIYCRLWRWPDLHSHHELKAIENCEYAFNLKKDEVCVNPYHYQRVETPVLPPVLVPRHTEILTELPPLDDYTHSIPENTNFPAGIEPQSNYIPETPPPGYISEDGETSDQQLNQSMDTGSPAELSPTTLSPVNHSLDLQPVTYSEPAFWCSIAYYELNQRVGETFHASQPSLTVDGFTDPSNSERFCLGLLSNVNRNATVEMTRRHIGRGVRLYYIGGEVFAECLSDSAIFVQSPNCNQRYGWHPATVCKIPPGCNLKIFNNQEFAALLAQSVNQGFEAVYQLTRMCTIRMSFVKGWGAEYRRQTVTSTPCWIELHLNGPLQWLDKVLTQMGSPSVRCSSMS

CC(C)(C(=O)O)c1ccc(C(O)CCCN2CCC(C(O)(c3ccccc3)c3ccccc3)CC2)cc1 (stereo not shown) [Fexofenadine]
DARTS, Western blot (cPLA2): cPLA2 remained undigested by the protease following incubation with FFD | Kd [1]: 3 µM | Tm with FFD (control 50.49) [2]: 60.01 °C | CETSA and DARTS, Western blot [3]: DARTS and CETSA experiments subsequently confirmed the interaction between FFD and Smad2
